These results are taken from patent US9290511B2, “Thieno-pyrimidines, useful as potassium channel inhibitors” (XENTION LIMITED, priority 2011, dated 2016).

The term IC50 denotes the concentration that gives 50% inhibition. Low values mean inhibition by little substance, high ones a need for much substance.

This experiment addresses T1, Kir3.1/3.4 (Rattus norvegicus, UniProt P48548+P63251).
T1 construct: expressed in transfected cells
T1 sequence (P63251 1-501): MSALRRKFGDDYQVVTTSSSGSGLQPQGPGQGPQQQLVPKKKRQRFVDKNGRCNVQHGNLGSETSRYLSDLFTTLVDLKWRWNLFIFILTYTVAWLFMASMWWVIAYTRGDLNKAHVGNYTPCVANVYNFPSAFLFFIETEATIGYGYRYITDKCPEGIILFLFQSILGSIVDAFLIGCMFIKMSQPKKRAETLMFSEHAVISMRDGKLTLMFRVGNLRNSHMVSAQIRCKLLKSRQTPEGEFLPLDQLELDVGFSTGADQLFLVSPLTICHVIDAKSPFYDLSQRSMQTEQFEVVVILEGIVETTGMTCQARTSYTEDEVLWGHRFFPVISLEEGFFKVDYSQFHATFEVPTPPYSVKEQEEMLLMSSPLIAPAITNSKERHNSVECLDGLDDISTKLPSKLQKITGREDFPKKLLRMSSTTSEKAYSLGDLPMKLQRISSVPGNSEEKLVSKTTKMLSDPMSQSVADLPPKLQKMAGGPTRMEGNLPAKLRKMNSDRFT
T1 sequence (P48548 1-419): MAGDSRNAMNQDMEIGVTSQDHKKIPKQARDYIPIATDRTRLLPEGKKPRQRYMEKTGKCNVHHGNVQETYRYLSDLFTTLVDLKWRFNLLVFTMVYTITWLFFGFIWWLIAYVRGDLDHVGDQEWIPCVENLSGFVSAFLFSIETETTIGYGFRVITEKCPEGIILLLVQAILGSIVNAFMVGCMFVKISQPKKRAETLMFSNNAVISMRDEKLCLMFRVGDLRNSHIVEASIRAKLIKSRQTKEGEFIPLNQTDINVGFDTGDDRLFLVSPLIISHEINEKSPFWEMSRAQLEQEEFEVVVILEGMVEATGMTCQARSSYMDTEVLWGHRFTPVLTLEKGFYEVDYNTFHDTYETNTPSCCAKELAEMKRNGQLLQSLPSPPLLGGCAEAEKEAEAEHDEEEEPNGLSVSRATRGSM
The experiment can be described thus: Kir3.1/3.4 Q-patch Method (automated patch clamp, Sophion Q-patch). As to conditions: HEK293 cells stably-expressing Kir3.1/3.4; current at -120 mV; QPatch-16 or QPatch-48. Format: cell-based. Here is the method: For automated patch-clamp studies using the Sophion Q-patch, accumulative concentration-responses experiments were conducted to determine compound activity against the ion channel target. Voltage-clamp experiments were performed using HEK293 cells stably-expressing Kir3.1/3.4 using either a QPatch-16 or QPatch-48 (Sophion Bioscience A/S). A voltage waveform (VHold−20 mV, step to 60 mV for 100 ms, ramp to −120 mV over 500 ms, hold at −120 mV for 100 ms before returning to VHold) was repeatedly applied to the cells under voltage-clamp at a frequency of 0.1 Hz to elicit Kir3.1/3.4 currents. Mean current at −120 mV was measured in the absence (Icontrol) and presence of drug (IDrug). Assessment of passive leak was performed by removal of external potassium (IZero). Leak current was subtracted from control and drug recordings. Current inhibition (%) was calculated as {1−[(IDrug−IZero)/(IControl−IZero)]}*100. Data were fitted with a sigmoidal function to yield an IC50 and Hill coefficient. Composition of external experimental buffer was (in mM): 40 NaCl, 100 KCl, 5 CaCl2, 1 MgCl2, 10 HEPES pH 7.4. Composition of internal solution was (in mM). 40 K-gluconate, 60 KF, 20 NaCl, 5 Mg-ATP, 0.9 GTPgS, 20 EGTA, pH 7.2. Compounds were formulated in DMSO and diluted in buffer to give a final drug concentration of between […] and a final DMSO concentration of 0.1-0.3%.
(In general: In patch-clamp work, channel activity is measured electrically.)
As for `O=C1CN(c2nc(N3C4CCC3COC4)c3c(-c4ccccc4Cl)csc3n2)CCN1` [Example 424, 4-[5-(2-chlorophenyl)-4-(3-oxa-8-azabicyclo[3.2.1]octan-8-yl)thieno[2,3-d]pyrimidin-2-yl]piperazin-2-one], the half-inhibitory concentration (IC50) is < 500 nM. `NC(=O)C1CCN(c2nc(N3C4CCC3COC4)c3c(-c4ccccc4Cl)csc3n2)C1` (stereo not drawn) [Example 422, 1-[5-(2-chlorophenyl)-4-(3-oxa-8-azabicyclo[3.2.1]octan-8-yl)thieno[2,3-d]pyrimidin-2-yl]pyrrolidine-3-carboxamide] gave an IC50 of 500 to 3000 nM. Regarding `COC1CC2CCC(C1)N2c1nc(N2CCNC(C(N)=O)C2)nc2scc(-c3ccccc3Cl)c12` (stereo not drawn) [Example 392, 4-[5-(2-chlorophenyl)-4-(3-methoxy-8-azabicyclo[3.2.1]octan-8-yl)thieno[2,3-d]pyrimidin-2-yl]piperazine-2-carboxamide], the IC50 is < 500 nM. `COc1ccccc1-c1csc2nc(N3CCC(O)C3)nc(N3C4CCC3COC4)c12` (stereo not drawn) [Example 404, 1-[5-(2-methoxyphenyl)-4-(3-oxa-8-azabicyclo[3.2.1]octan-8-yl)thieno[2,3-d]pyrimidin-2-yl]pyrrolidin-3-ol]: the IC50 is < 500 nM. Under `NC(=O)C1CCN(c2nc(N3C4CCC3CC(O)C4)nc3scc(-c4ccccc4Cl)c23)C1` (stereo not drawn) [Example 412, 1-[5-(2-chlorophenyl)-2-(3-hydroxy-8-azabicyclo[3.2.1]octan-8-yl)thieno[2,3-d]pyrimidin-4-yl]pyrrolidine-3-carboxamide] stands 500 to 3000 nM; under `COc1ccccc1-c1csc2nc(N3C4CCC3CC(CO)C4)nc(N3CCNC(=O)C3)c12` (stereo not drawn) [Example 413, 4-[2-[3-(hydroxymethyl)-8-azabicyclo[3.2.1]octan-8-yl]-5-(2-methoxyphenyl)thieno[2,3-d]pyrimidin-4-yl]piperazin-2-one], < 500 nM.

With `OC1CC2CCC(C1)N2c1nc(N2C3CCC2COC3)c2c(-c3ccccc3Cl)csc2n1` (stereo not drawn) [Example 421, 8-[5-(2-chlorophenyl)-4-(3-oxa-8-azabicyclo[3.2.1]octan-8-yl)thieno[2,3-d]pyrimidin-2-yl]-8-azabicyclo[3.2.1]octan-3-ol], the IC50 was < 500 nM. With `COc1ccccc1-c1csc2nc(N3C4CCC3COC4)nc(N3CCOC(C(N)=O)C3)c12` (stereo not drawn) [Example 419, 4-[5-(2-methoxyphenyl)-2-(3-oxa-8-azabicyclo[3.2.1]octan-8-yl)thieno[2,3-d]pyrimidin-4-yl]morpholine-2-carboxamide], the IC50 was < 500 nM. Under `COCC1CC2CCC(C1)N2c1nc(N2CCNC(=O)C2)nc2scc(-c3ccccc3OC)c12` (stereo not drawn) [Example 378, 4-[4-[3-(methoxymethyl)-8-azabicyclo[3.2.1]octan-8-yl]-5-(2-methoxyphenyl)thieno[2,3-d]pyrimidin-2-yl]piperazin-2-one] stands 500 to 3000 nM. For `COCC1CC2CCC(C1)N2c1nc(N2CCC(C(N)=O)C2)nc2scc(-c3ccccc3OC)c12` (stereo not drawn) [Example 376, 1-[4-[3-(methoxymethyl)-8-azabicyclo[3.2.1]octan-8-yl]-5-(2-methoxyphenyl)thieno[2,3-d]pyrimidin-2-yl]pyrrolidine-3-carboxamide], the IC50 was 500 to 3000 nM.

As for `OC1CCN(c2nc(N3C4CCC3COC4)c3c(-c4ccccc4Cl)csc3n2)C1` (stereo not drawn) [Example 426, 1-[5-(2-chlorophenyl)-4-(3-oxa-8-azabicyclo[3.2.1]octan-8-yl)thieno[2,3-d]pyrimidin-2-yl]pyrrolidin-3-ol], the IC50 is < 500 nM. `COc1ccccc1-c1csc2nc(N3CCC(C(N)=O)C3)nc(N3C4CCC3COC4)c12` (stereo not drawn) [Example 401, 1-[5-(2-methoxyphenyl)-4-(3-oxa-8-azabicyclo[3.2.1]octan-8-yl)thieno[2,3-d]pyrimidin-2-yl]pyrrolidine-3-carboxamide] displayed an IC50 of 500 to 3000 nM. For `COC1CC2CCC(C1)N2c1nc(N2CCCC(C(N)=O)C2)c2c(-c3ccccc3Cl)csc2n1` (stereo not drawn) [Example 374, 1-[5-(2-chlorophenyl)-2-(3-methoxy-8-azabicyclo[3.2.1]octan-8-yl)thieno[2,3-d]pyrimidin-4-yl]piperidine-3-carboxamide], the IC50 is < 500 nM. As to `COCC1CC2CCC(C1)N2c1nc(C#N)nc2scc(-c3ccccc3OC)c12` (stereo not drawn) [Example 406, 4-[3-(methoxymethyl)-8-azabicyclo[3.2.1]octan-8-yl]-5-(2-methoxyphenyl)thieno[2,3-d]pyrimidine-2-carbonitrile], the IC50 is < 500 nM.

`COCC1CC2CCC(C1)N2c1nc(N2C3CCC2COC3)c2c(-c3ccccc3OC)csc2n1` (stereo not drawn) [Example 395, 8-[2-[3-(methoxymethyl)-8-azabicyclo[3.2.1]octan-8-yl]-5-(2-methoxyphenyl)thieno[2,3-d]pyrimidin-4-yl]-3-oxa-8-azabicyclo[3.2.1]octane] registered an IC50 of 500 to 3000 nM. As for `NC(=O)C1CCN(c2nc(N3C4CCC3COC4)nc3scc(-c4ccccc4Cl)c23)C1` (stereo not drawn) [Example 415, 1-[5-(2-chlorophenyl)-2-(3-oxa-8-azabicyclo[3.2.1]octan-8-yl)thieno[2,3-d]pyrimidin-4-yl]pyrrolidine-3-carboxamide], the IC50 was 500 to 3000 nM. Under `COc1ccccc1-c1csc2nc(N3CCNC(=O)C3)nc(N3C4CCC3COC4)c12` [Example 403, 4-[5-(2-methoxyphenyl)-4-(3-oxa-8-azabicyclo[3.2.1]octan-8-yl)thieno[2,3-d]pyrimidin-2-yl]piperazin-2-one] stands < 500 nM; under `NC(=O)C1CN(c2nc(N3C4CCC3COC4)nc3scc(-c4ccccc4Cl)c23)CCN1` (stereo not drawn) [Example 417, 4-[5-(2-chlorophenyl)-2-(3-oxa-8-azabicyclo[3.2.1]octan-8-yl)thieno[2,3-d]pyrimidin-4-yl]piperazine-2-carboxamide], 500 to 3000 nM; under `COc1ccccc1-c1csc2nc(N3CCCC(C(N)=O)C3)nc(N3C4CCC3CC(OC)C4)c12` (stereo not drawn) [Example 390, 1-[4-(3-methoxy-8-azabicyclo[3.2.1]octan-8-yl)-5-(2-methoxyphenyl)thieno[2,3-d]pyrimidin-2-yl]piperidine-3-carboxamide], 500 to 3000 nM. In turn, `NC(=O)C1CCCN(c2nc(N3C4CCC3COC4)nc3scc(-c4ccccc4Cl)c23)C1` (stereo not drawn) [Example 411, 1-[5-(2-chlorophenyl)-2-(3-oxa-8-azabicyclo[3.2.1]octan-8-yl)thieno[2,3-d]pyrimidin-4-yl]piperidine-3-carboxamide] returned an IC50 of 500 to 3000 nM. Under `NC(=O)C1CN(c2nc(N3C4CCC3COC4)c3c(-c4ccccc4Cl)csc3n2)CCN1` (stereo not drawn) [Example 416, 4-[5-(2-chlorophenyl)-4-(3-oxa-8-azabicyclo[3.2.1]octan-8-yl)thieno[2,3-d]pyrimidin-2-yl]piperazine-2-carboxamide] stands < 500 nM. Next, `COC1CC2CCC(C1)N2c1nc(N2CCOC(C(N)=O)C2)nc2scc(-c3ccccc3Cl)c12` (stereo not drawn) [Example 408, 4-[5-(2-chlorophenyl)-4-(3-methoxy-8-azabicyclo[3.2.1]octan-8-yl)thieno[2,3-d]pyrimidin-2-yl]morpholine-2-carboxamide]: < 500 nM; `COCC1CC2CCC(C1)N2c1nc(N2C3CCC2CC(O)C3)nc2scc(-c3ccccc3OC)c12` (stereo not drawn) [Example 372, 8-[4-[3-(methoxymethyl)-8-azabicyclo[3.2.1]octan-8-yl]-5-(2-methoxyphenyl)thieno[2,3-d]pyrimidin-2-yl]-8-azabicyclo[3.2.1]octan-3-ol]: < 500 nM; `NC(=O)C1CCCN(c2nc(N3C4CCC3COC4)c3c(-c4ccccc4Cl)csc3n2)C1` (stereo not drawn) [Example 410, 1-[5-(2-chlorophenyl)-4-(3-oxa-8-azabicyclo[3.2.1]octan-8-yl)thieno[2,3-d]pyrimidin-2-yl]piperidine-3-carboxamide]: 500 to 3000 nM.
